Results published in US10759783B2, “Biaryl inhibitors of Bruton'S tyrosine kinase” (BIOGEN MA INC., priority 2013, dated 2020).

Columns and labels:
BTK enzyme = target: T1, BTK enzyme (Homo sapiens, UniProt Q06187); test: In vitro BTK kinase assay: BTK-POLYGAT-LS assay; assay type: biochemical; conditions: ATP 10 μM, read-out: IC50 (10uMATP)
T1 construct: purchased Upstate 14-552
In short: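 Human BTK activity was measured with final 10 μM ATP and 100 nM polyGAT substrate in pH 7.5 Tris buffer with 10 mM MgCl2, DTT, Triton X-100 and casein.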

[1] = target: BTK (phospho-BTK) in human whole blood (Homo sapiens, UniProt Q06187); test: In vitro PD assay in human whole blood (pBTK assay)
Chain of BTK (phospho-BTK) in human whole blood (Q06187 whole entry): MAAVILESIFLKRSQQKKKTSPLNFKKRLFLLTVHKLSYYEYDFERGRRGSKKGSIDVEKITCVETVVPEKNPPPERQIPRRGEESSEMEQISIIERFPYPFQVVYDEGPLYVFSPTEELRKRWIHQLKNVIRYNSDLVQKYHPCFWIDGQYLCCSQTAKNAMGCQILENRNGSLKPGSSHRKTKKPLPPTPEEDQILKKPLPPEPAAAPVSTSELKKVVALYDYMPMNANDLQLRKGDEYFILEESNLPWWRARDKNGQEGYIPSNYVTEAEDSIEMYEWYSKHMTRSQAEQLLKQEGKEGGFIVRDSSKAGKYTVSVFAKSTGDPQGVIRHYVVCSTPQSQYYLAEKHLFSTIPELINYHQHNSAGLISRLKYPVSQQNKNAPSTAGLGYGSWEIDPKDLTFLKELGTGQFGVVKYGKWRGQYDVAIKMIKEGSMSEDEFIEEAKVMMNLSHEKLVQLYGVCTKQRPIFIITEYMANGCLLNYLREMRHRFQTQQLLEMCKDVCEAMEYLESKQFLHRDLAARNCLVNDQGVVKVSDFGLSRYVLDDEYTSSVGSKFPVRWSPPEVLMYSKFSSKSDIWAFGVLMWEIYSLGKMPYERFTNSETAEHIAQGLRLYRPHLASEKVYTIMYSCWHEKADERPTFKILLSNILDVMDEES

T1 sequence (Q06187 whole entry): as above

| SMILES | IC50 (BTK enzyme) [nM] | IC50 [1] [nM] |
| --- | --- | --- |
| Cc1cc(-c2cc(Nc3cc4n(n3)CC(=O)N(C)C4)ncn2)ccc1CNC(=O)N1CC(OC(C)(C)C)C1 [Example I-239, 3-(tert-butoxy)-N-(2-methyl-4-(6-((5-methyl-6-oxo-4,5,6,7-tetrahydropyrazolo-[1,5-a]pyrazin-2-yl)amino)pyrimidin-4-yl)benzyl) azetidine-1-carboxamide] | < 10 | < 500 |
| CCn1cc(Nc2nccc(-c3ccc(CNC(=O)c4cnn(C(C)(C)C)c4)c(C)c3)n2)cn1 [Example I-247, 1-(tert-butyl)-N-(4-(2-((1-ethyl-1H-pyrazol-4-yl)amino)pyrimidin-4-yl)-2-methylbenzyl)-1H-pyrazole-4-carboxamide] | < 10 | < 500 |
| Cn1cc(Nc2nccc(-c3ccc4c(c3)CCNCC4NC(=O)N3CC(OC(C)(C)C)C3)n2)cn1 (stereo not drawn) [Example I-248, 3-(tert-butoxy)-N-(7-(2-((1-methyl-1H-pyrazol-4-yl)amino)pyrimidin-4-yl)-2,3,4,5-tetrahydro-H-benzo[d]azepin-1-yl)azetidine-1-carboxamide] | < 10 | < 500 |
| Cc1cc(-c2ccnc(Nc3cnn(C)c3)n2)ccc1CN1CCN(CC(C)C)CC1=O [Example I-249, 4-isobutyl-1-(2-methyl-4-(2-((1-methyl-1H-pyrazol-4-yl)amino)pyrimidin-4-yl)benzyl)piperazin-2-one] | < 10 | < 500 |
| Cc1cc(-c2ccnc(Nc3cnn(CCO)c3)n2)ccc1CNC(=O)c1cnn(C(C)(C)C)c1 [Example I-250, 1-tert-butyl-N-[[4-[2-[[1-(2-hydroxyethyl)pyrazol-4-yl]amino]pyrimidin-4-yl]-2-methyl-phenyl]methyl]pyrazole-4-carboxamide] | < 10 | < 500 |
| Cc1cc(-c2cc(Nc3ccc(N4CCN(C)CC4)cn3)ncn2)ccc1CNC(=O)N1CC(OC(C)(C)C)C1 [Example I-251, 3-tert-butoxy-N-[[2-methyl-4-[6-[[5-(4-methylpiperazin-1-yl)-2-pyridyl]amino]pyrimidin-4-yl]phenyl]methyl]azetidine-1-carboxamide] | < 10 | < 500 |
| Cc1cc(-c2ccnc(Nc3cnn(C)c3)n2)ccc1CNC(=O)c1ccn(C(C)(C)C)n1 [Example I-252, 1-tert-butyl-N-[[2-methyl-4-[2-[(1-methylpyrazol-4-yl)amino]pyrimidin-4-yl]phenyl]methyl]pyrazole-3-carboxamide] | < 10 | < 500 |
| Cc1cc(-c2ccnc(Nc3cnn(C)c3)n2)ccc1CNC(=O)N1CC[C@H](C(C)(C)C)C1 [Example I-253, (3R)-3-tert-butyl-N-[[2-methyl-4-[2-[(1-methylpyrazol-4-yl)amino]pyrimidin-4-yl]phenyl]methyl]pyrrolidine-1-carboxamide] | < 10 | < 500 |
| Cc1cc(-c2ccnc(Nc3cnn(C)c3)n2)ccc1CNC(=O)N1CC[C@@H](C(C)(C)C)C1 [Example I-254] | < 10 | < 500 |
| Cc1cc(-c2ccnc(Nc3cnn(C)c3)n2)ccc1CNC(=O)N1CC[C@@H](C(C)C)C1 [Example I-255, (3S)-3-isopropyl-N-[[2-methyl-4-[2-[(1-methylpyrazol-4-yl)amino]pyrimidin-4-yl]phenyl]methyl]pyrrolidine-1-carboxamide] | < 10 | < 500 |
| Cc1cc(-c2cc(Nc3cc4n(n3)CCN(C)C4)ncn2)ccc1CNC(=O)N1CC(OC(C)(C)C)C1 [Example I-256, 3-tert-butoxy-N-[[2-methyl-4-[6-[(5-methyl-6,7-dihydro-4H-pyrazolo[1,5-a]pyrazin-2-yl)amino]pyrimidin-4-yl]phenyl]methyl]azetidine-1-carboxamide] | < 10 | < 500 |
| Cc1cc(-c2ccnc(Nc3cnn(C(C)C)c3)n2)ccc1CNC(=O)c1cnn(C(C)(C)C)c1 [Example I-258, 1-tert-butyl-N-[[4-[2-[(1-isopropylpyrazol-4-yl)amino]pyrimidin-4-yl]-2-methyl-phenyl]methyl]pyrazole-4-carboxamide] | < 10 | < 500 |
| Cc1cc(-c2ccnc(Nc3cnn(C(C)C)c3)n2)ccc1CNC(=O)N1CC(OC(C)C)C1 [Example I-259, 3-isopropoxy-N-[[4-[2-[(1-isopropylpyrazol-4-yl)amino]pyrimidin-4-yl]-2-methyl-phenyl]methyl]azetidine-1-carboxamide] | < 10 | < 500 |

Continued, values first:

| IC50 (BTK enzyme) [nM] | IC50 [1] [nM] | SMILES |
| --- | --- | --- |
| < 10 | < 500 | Cc1cc(-c2cc(Nc3cc4n(n3)CCNC4)ncn2)ccc1CNC(=O)c1cnn(C(C)(C)C)c1 [Example I-231, 1-(tert-butyl)-N-(2-methyl-4-(6-((4,5,6,7-tetrahydropyrazolo[1,5-a]pyrazin-2-yl)amino)-pyrimidin-4-yl)benzyl)-1H-pyrazole-4-carboxamide] |
| < 10 | < 500 | CCN1CCn2nc(Nc3cc(-c4ccc(CNC(=O)c5cnn(C(C)(C)C)c5)c(C)c4)ncn3)cc2C1 [Example I-232, 1-(tert-butyl)-N-(4-(6-((5-ethyl-4,5,6,7-tetrahydropyrazolo[1,5-a]pyrazin-2-yl)amino)pyrimidin-4-yl)-2-methylbenzyl)-1H-pyrazole-4-carboxamide] |
| < 10 | < 500 | Cc1cc(-c2cc(Nc3cc4n(n3)CCN(CCO)C4)ncn2)ccc1CNC(=O)c1cnn(C(C)(C)C)c1 [Example I-233, 1-(tert-butyl)-N-(4-(6-((5-(2-hydroxyethyl)-4,5,6,7-tetrahydropyrazolo[1,5-a]pyrazin-2-yl)amino)pyrimidin-4-yl)-2-methylbenzyl)-1H-pyrazole-4-carboxamide] |
| < 10 | < 500 | Cc1cc(-c2cc(Nc3cc4n(n3)CCCNC4)ncn2)ccc1CNC(=O)c1cnn(C(C)(C)C)c1 [Example I-234, 1-(tert-butyl)-N-(2-methyl-4-(6-((5,6,7,8-tetrahydro-4H-pyrazolo[1,5-a][1,4]diazepin-2-yl)amino)pyrimidin-4-yl)benzyl)-1H-pyrazole-4-carboxamide] |
| < 10 | < 500 | Cc1cc(-c2cc(Nc3cc4n(n3)CCCN(CCO)C4)ncn2)ccc1CNC(=O)c1cnn(C(C)(C)C)c1 [Example I-235, 1-(tert-butyl)-N-(4-(6-((5-(2-hydroxyethyl)-5,6,7,8-tetrahydro-4H-pyrazolo[1,5-a][1,4]diazepin-2-yl)amino)pyrimidin-4-yl)-2-methylbenzyl)-1H-pyrazole-4-carboxamide] |
| < 10 | < 500 | Cc1cc(-c2cc(Nc3cc4n(n3)CCCN(C)C4)ncn2)ccc1CNC(=O)c1cnn(C(C)(C)C)c1 [Example I-236, 1-(tert-butyl)-N-(2-methyl-4-(6-((5-methyl-5,6,7,8-tetrahydro-4H-pyrazolo[1,5-a][1,4]diazepin-2-yl)amino)pyrimidin-4-yl)benzyl)-1H-pyrazole-4-carboxamide] |
| < 10 | < 500 | Cc1cc(-c2cc(Nc3cc4n(n3)CCOC4)ncn2)ccc1CNC(=O)c1cnn(C(C)(C)C)c1 [Example I-237, 1-(tert-butyl)-N-(4-(6-((6,7-dihydro-4H-pyrazolo[5,1-c][1,4]oxazin-2-yl)amino)pyrimidin-4-yl)-2-methylbenzyl)-1H-pyrazole-4-carboxamide] |
| < 10 | < 500 | CCC1CN(C(=O)NCc2ccc(-c3ccnc(Nc4cnn(C)c4)n3)cc2C)C1 [Example I-238, 3-Ethyl-N-(2-methyl-4-(2-((1-methyl-1H-pyrazol-4-yl)amino)pyrimidin-4-yl)benzyl)azetidine-1-carboxamide] |
| < 10 | < 500 | CN1CCn2nc(Nc3cc(-c4ccc(CNC(=O)c5cnn(C(C)(C)C)c5)c(Cl)c4)ncn3)cc2C1 [Example I-240, 1-(tert-butyl)-N-(2-chloro-4-(6-((5-methyl-4,5,6,7-tetrahydropyrazolo[1,5-a]-pyrazin-2-yl)amino)pyrimidin-4-yl)benzyl)-1H-pyrazole-4-carboxamide] |
| < 10 | < 500 | CN1CCn2nc(Nc3cc(-c4ccc(CNC(=O)c5cnn(C(C)(C)C)c5)c(C(F)(F)F)c4)ncn3)cc2C1 [Example I-241, 1-(tert-butyl)-N-(4-(6-((5-methyl-4,5,6,7-tetrahydropyrazolo[1,5-a]pyrazin-2-yl)amino)pyrimidin-4-yl)-2-(trifluoromethyl)benzyl)-1H-pyrazole-4-carboxamide] |
| < 10 | < 500 | Cc1cc(-c2cc(Nc3cc4n(n3)CCS(=O)(=O)C4)ncn2)ccc1CNC(=O)c1cnn(C(C)(C)C)c1 [Example I-242, 1-(tert-butyl)-N-(4-(6-((5,5-dioxido-6,7-dihydro-4H-pyrazolo[5,1-c][1,4]thiazin-2-yl)amino)pyrimidin-4-yl)-2-methylbenzyl)-1H-pyrazole-4-carboxamide] |
| < 10 | < 500 | [2H]C([2H])([2H])n1cc(Nc2cc(-c3ccc(CNC(=O)N4CC(OC(C)C)C4)c(C)c3)ncn2)cn1 [Example I-243, 3-isopropoxy-N-(2-methyl-4-(6-((1-d3-methyl-1H-pyrazol-4-yl)amino)pyrimidin-4-yl)benzyl)azetidine-1-carboxamide] |
| < 10 | < 500 | Cc1cc(-c2cc(Nc3cc4n(n3)CCN(C)C4)ncn2)ccc1CNC(=O)N1CC[C@@H](C(C)(C)C)C1 [Example I-244, (S)-3-(tert-butyl)-N-(2-methyl-4-(6-((5-methyl-4,5,6,7-tetrahydropyrazolo[1,5-a]pyrazin-2-yl)amino)pyrimidin-4-yl)benzyl)pyrrolidine-1-carboxamide] |
| < 10 | < 500 | Cc1cc(-c2cc(Nc3cc4n(n3)CCN(C)C4)ncn2)ccc1CNC(=O)N1CC[C@H](C(C)(C)C)C1 [Example I-245, (R)-3-(tert-butyl)-N-(2-methyl-4-(6-((5-methyl-4,5,6,7-tetrahydropyrazolo[1,5-a]pyrazin-2-yl)amino)pyrimidin-4-yl)benzyl)pyrrolidine-1-carboxamide] |
